Values of other authors in US12023346B1, “Compositions and methods for treating epilepsy” (POVIVA CORP, priority 2023, dated 2024).
Like-named read-outs stand apart in the source and are kept apart here.

C=C(C)[C@@H]1CCC(C)=C[C@H]1c1c(O)cc(CCCCC)cc1O [Cannabidiol, 2-[(1R,6R)-6-Isopropenyl-3-methylcyclohex-2-en-1-yl]-5-pentylbenzene-1,3-diol]
Plasma concentration on Day 22 at target CBD dose, 5 hours, Mean (SD) (5 mg/kg/day (N = 10)): 72.1 (49.0) ng/mL
Plasma concentration on Day 22 at target CBD dose, […], Mean (SD) (5 mg/kg/day (N = 10)): 130 (170) ng/mL
Plasma concentration on Day 1 at starting CBD dose, 5 hours, Mean (SD) (5 mg/kg/day group (N = 10)): 10.0 (5.74) ng/ml
Plasma concentration on Day 1 at starting CBD dose, Pre-dose, Mean (SD) (5 mg/kg/day group (N = 10)): 0 ng/mL
Plasma concentration on Day 1 at starting CBD dose, […], Mean (SD) (5 mg/kg/day group (N = 10)): 37.6 (53.7) ng/ml
Plasma concentration on Day 22 at target CBD dose, 5 hours, Mean (SD) (10 mg/kg/day (N = 8)): 288 (345) ng/mL
Plasma concentration on Day 22 at target CBD dose, […], Mean (SD) (10 mg/kg/day (N = 8)): 242 (159) ng/mL
Plasma concentration on Day 1 at starting CBD dose, 5 hours, Mean (SD) (10 mg/kg/day group (N = 8)): 11.3 (11.7) ng/ml
Plasma concentration on Day 1 at starting CBD dose, Pre-dose, Mean (SD) (10 mg/kg/day group (N = 8)): 0 ng/mL
Plasma concentration on Day 1 at starting CBD dose, […], Mean (SD) (10 mg/kg/day group (N = 8)): 34.4 (32.1) ng/ml
Plasma concentration on Day 22 at target CBD dose, 5 hours, Mean (SD) (20 mg/kg/day (N = 9)): 308 (321) ng/mL
Plasma concentration on Day 22 at target CBD dose, […], Mean (SD) (20 mg/kg/day (N = 9)): 380 (370) ng/mL
Plasma concentration on Day 1 at starting CBD dose, 5 hours, Mean (SD) (20 mg/kg/day group (N = 9)): 25.3 (42.4) ng/ml
Plasma concentration on Day 1 at starting CBD dose, Pre-dose, Mean (SD) (20 mg/kg/day group (N = 9)): 0 ng/mL
Plasma concentration on Day 1 at starting CBD dose, […], Mean (SD) (20 mg/kg/day group (N = 9)): 29.3 (28.5) ng/ml
